Data as given in ChEMBL document CHEMBL2046363, “Discovery and structure-activity relationship of 2,6-disubstituted pyrazines, potent and selective inhibitors of protein kinase CK2” (Bioorg Med Chem Lett, 2012).
Calls of active or inactive are those of the source. No cut-off for these calls is given here.

Assays:
[1] = Inhibition of CK2 expressed in HEK293 cells by SRE-luciferase reporter gene assay; format: cell-based
[2] = Inhibition of CK2
[3] = Selectivity ratio of IC50 for ERK to CK2
Rattus norvegicus = experiment: Antinephritic activity in anti-GBM glomerulonephritis Wistar-Kyoto rat model assessed as improved proteinuria at 15 mg/kg, ip qd measured at day 7 by pyrogallol Red method; format: functional, organism-based; parameters: dose 15 mg/kg
[4] = Selectivity ratio of IC50 for PKA to CK2
[5] = Selectivity ratio of IC50 for CAMK2 to CK2
[6] = Selectivity ratio of IC50 for PKC to CK2
[7] = Selectivity ratio of IC50 for S6 kinase to CK2
[8] = Selectivity ratio of IC50 for p38beta2 to CK2

CC(C)Nc1ccc2cnn(-c3cncc(-n4ccc(CC(=O)O)c4)n3)c2c1
IC50 [1]: 1000 nM | IC50 [2]: 8 nM

O=C(O)Cc1ccn(-c2cncc(-n3nc(Cl)c4ccccc43)n2)c1
IC50 [1]: 30000 nM | IC50 [2]: 12 nM

O=C(O)Cc1ccn(-c2cncc(-n3ncc4ccc(Cl)cc43)n2)c1
IC50 [1]: 4000 nM | IC50 [2]: 16 nM

N#Cc1ccc2cnn(-c3cncc(-n4ccc(CC(=O)O)c4)n3)c2c1
IC50 [1]: 11000 nM | IC50 [2]: 22 nM

O=C(O)Cc1ccn(-c2cncc(-n3ncc4ccc(NC5CCCC5)cc43)n2)c1
Ratio IC50 [3]: > 740 | Activity (Rattus norvegicus): Active | IC50 [1]: 900 nM | Ratio IC50 [4]: > 740 | Ratio IC50 [5]: 162 | Ratio IC50 [6]: > 740 | Ratio IC50 [7]: 626 | IC50 [2]: 9.3 nM | Ratio IC50 [8]: > 740

O=C(O)Cc1ccn(-c2cncc(-n3cnc4ccccc43)n2)c1
IC50 [2]: 100 nM

Cc1cc(O)c2c(c1)C(=O)c1cc(O)cc(O)c1C2=O [EMODIN]
IC50 [2]: 2000 nM

Nc1ccc2cnn(-c3cncc(-n4ccc(CC(=O)O)c4)n3)c2c1
IC50 [2]: 25 nM

O=C(O)Cc1ccn(-c2cncc(-n3ccc4ccccc43)n2)c1
IC50 [2]: 100 nM

O=C(O)Cc1ccn(-c2cncc(-n3ncc4ccccc43)n2)c1
IC50 [2]: 30 nM

O=C(O)Cc1cn(-c2cncc(-n3cc(CC(=O)O)c4ccccc43)n2)c2ccccc12
IC50 [2]: 300 nM

O=C(O)Cc1cn(-c2cncc(-n3ccc4ccccc43)n2)c2ccccc12
IC50 [2]: 500 nM

O=C(O)Cc1ccn(-c2cncc(N3CCc4ccccc43)n2)c1
IC50 [2]: 50 nM

O=C(O)Cc1c2ccccc2n2c1[nH]c(=O)c1ccccc12
IC50 [2]: 80 nM

O=C(O)Cc1cn(-c2cncc(-n3cccc3)n2)c2ccccc12
IC50 [2]: 3000 nM

Nc1nn(-c2cncc(-n3ccc(CC(=O)O)c3)n2)c2ccccc12
IC50 [1]: 15000 nM | IC50 [2]: 8 nM
